One data set deals with HEK293T cells. Put plainly: In vitro Luc-mRNA transfection, luciferase luminescence expression in HEK293T cells. Type of data set: cell-based, human. More on the design: unit not given here. Particulars: Table 16; HEK 293T cells, 125 ng/well, n=3. Put shortly:
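HEK293T cells were transfected with nucleoside-modified firefly luciferase mRNA at 125 ng/well delivered in the test particles. TransIT and MC3-based LNPs at equal mRNA dose served as comparators. After 24 h (18-20 h in some runs) at 37° C the cells were lysed, and luciferase luminescence was read on a luminometer, in triplicate.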

The test system of another data set is BALB/c mice. Put plainly: In vivo mRNA delivery in mice with DNPs, whole-body bioluminescence imaging (IVIS).
The subject of another data set is lung. Put plainly: In vivo mRNA delivery, IVIS imaging of organs: lung. More on the design: species or system mice; key to Organs with luminescence: lung: strong: Strong meant the luminescence intensity in that organ was relatively high, compared to other organs; weak: Weak meant the luminescence intensity in that organ was relatively low, compared to other organs. The conditions noted are these: Table 17; mice, IVIS, 4-6 h after injection; intensity relative to other organs.

The next data set relates to liver. The data set is described as follows: In vivo mRNA delivery, IVIS imaging of organs: liver. Details: species or system mice; key to Organs with luminescence: liver: strong: Strong meant the luminescence intensity in that organ was relatively high, compared to other organs; weak: Weak meant the luminescence intensity in that organ was relatively low, compared to other organs. The conditions noted are these: Table 17; mice, IVIS, 4-6 h after injection; intensity relative to other organs.

The nature of data set [1]: Stability of DNPs by DLS after storage at 5° C. In kind it is physicochemical. More on the design: key: Excellent: the original sizes and distribution types remained almost the same after storage; Good: the original sizes and distribution types changed slightly (size difference was less than 100 nm) or the original size remained almost the same but the DLS curve showed more size distributions after storage. As to the method:
The stability of the DNPs as assayed by DLS. All the samples are prepared in acetate buffer. The stabilities of the constructs were ranked: Excellent (in bold)—the original sizes and distribution remains almost the same after storage; Good—the original relatively big sizes became smaller or broad size distribution became narrower; Not stable—the original relatively big sizes or broad size distribution remained almost the similar level, or the original relatively small sizes became bigger or narrow size distribution became broader.

The mark [2] stands for this setting: Table 20, nonsymmetric IAJDs and MC3-Luc-mRNA.

As to `CCCCCCCCCCCCCOc1cc(COC(=O)CCCN2CCN(CCO)CC2)cc(OCCCCCCCCCCC)c1` [IAJD 117, 3-(Tridecyloxy)-5-(undecyloxy)benzyl 4-(4-(2-hydroxyethyl)piperazin-1-yl)butanoate], the Luminescence in the data set with HEK293T cells is reported as 516,522. The “In vivo activity (total flux, p/s)” value in the data set on BALB/c mice (Table 19, nonsymmetric IAJDs) was 8.64 × 10^6 p/s. For the same compound, in the data set with lung, the “Organs with luminescence: lung” value is recorded as “Lung (weak),”. Also, in the data set with liver, the “Organs with luminescence: liver” value is recorded as “liver (weak),”. The Ranking of stability entry in data set [1] (after 70 days at 5° C.) is “Excellent”.
For the compound `CCCCCCCCCCCCCCCOc1cc(COC(=O)CCCN2CCN(C)CC2)cc(OCCCCCCCCCCC)c1` [IAJD 118, 3-(Pentadecyloxy)-5-(undecyloxy)benzyl 4-(4-methylpiperazin-1-yl)butanoate], in the data set with HEK293T cells, the Luminescence is reported as 568,354. The “In vivo activity (total flux, p/s)” value in the data set on BALB/c mice (Table 19, nonsymmetric IAJDs) is recorded as 1.46 × 10^7 p/s. Besides, the “Organs with luminescence: lung” value in the data set with lung is “Lung (weak),”. Moreover, in the data set with liver, the “Organs with luminescence: liver” value was “liver (weak),”. In addition, the Ranking of stability result in data set [1] (after 75 days at 5° C.) was “Excellent”.
For `CCCCCCCCCCCCCCCOc1cc(COC(=O)CCCN2CCN(CCO)CC2)cc(OCCCCCCCCCCC)c1` [IAJD 119, 3-(Pentadecyloxy)-5-(undecyloxy)benzyl 4-(4-(2-hydroxyethyl)piperazin-1-yl)butanoate], the Luminescence with HEK293T cells is on record as 565,906. Further, the “In vivo activity (total flux, p/s)” value with BALB/c mice (Table 19, nonsymmetric IAJDs) was 8.22 × 10^7 p/s. The “Organs with luminescence: lung” value with lung was “Lung (weak),”. Also, the “Organs with luminescence: liver” value in the data set with liver is “liver (weak),”. Moreover, in data set [1] (after 62 days at 5° C.), the Ranking of stability result was “Good”.
As for `CCCCCCCCCCCCCCOc1cc(COC(=O)CCCN2CCN(CCO)CC2)cc(OCCCCCCCCCCC)c1` [IAJD 125, 3-(Tetradecyloxy)-5-(undecyloxy)benzyl 4-(4-(2-hydroxyethyl)piperazin-1-yl)butanoate], in the data set with HEK293T cells, the Luminescence is 119,405. The “In vivo activity (total flux, p/s)” value with BALB/c mice (Table 19, nonsymmetric IAJDs) was 2.15 × 10^8 p/s; in the data set with BALB/c mice (setting [2]), 2.15 × 10^8 p/s. For the same compound, the “Organs with luminescence: lung” value in the data set on lung was “Lung (weak),”. Moreover, the “Organs with luminescence: liver” value in the data set on liver is given as “liver (weak),”. The Ranking of stability result in data set [1] (after 62 days at 5° C.) is “Excellent”.
In the case of `CCCCCCCCCCCCCCCCCOc1cc(COC(=O)CCCN2CCN(C)CC2)cc(OCCCCCCCCCCC)c1` [IAJD 126, 3-(Heptadecyloxy)-5-(undecyloxy)benzyl 4-(4-methylpiperazin-1-yl)butanoate], the Luminescence with HEK293T cells came to 675. Further, the “In vivo activity (total flux, p/s)” value with BALB/c mice (Table 19, nonsymmetric IAJDs) is 3.21 × 10^7 p/s. Also, the “Organs with luminescence: lung” value with lung was “Lung (weak),”. For the same compound, the “Organs with luminescence: liver” value in the data set with liver was “liver (weak),”. Besides, the Ranking of stability result in data set [1] (after 70 days at 5° C.) is reported as “Excellent”.
Take `CCCCCCCCCCCCCCCCCOc1cc(COC(=O)CCCN2CCN(CCO)CC2)cc(OCCCCCCCCCCC)c1` [IAJD 127, 3-(Heptadecyloxy)-5-(undecyloxy)benzyl 4-(4-(2-hydroxyethyl)piperazin-1-yl)butanoate]: the Luminescence in the data set on HEK293T cells is 147,731. In the data set on BALB/c mice (Table 19, nonsymmetric IAJDs), the “In vivo activity (total flux, p/s)” value is given as 1.07 × 10^8 p/s. In addition, the “Organs with luminescence: lung” value with lung is listed as “Lung (weak),”. Further, in the data set with liver, the “Organs with luminescence: liver” value is reported as “liver (weak),”. For the same compound, the Ranking of stability result in data set [1] (after 62 days at 5° C.) is given as “Good”.
Take `CCCCCCCCCCCCCCCCCCOc1cc(COC(=O)CCCN2CCN(CCO)CC2)cc(OCCCCCCCCCCC)c1` [IAJD 128, 3-(Octadecyloxy)-5-(undecyloxy)benzyl 4-(4-(2-hydroxyethyl)piperazin-1-yl)butanoate]: in the data set with HEK293T cells, the Luminescence is 449,311. Further, the “In vivo activity (total flux, p/s)” value with BALB/c mice (Table 19, nonsymmetric IAJDs) is given as 5.53 × 10^7 p/s; in the data set on BALB/c mice (setting [2]), 5.53 × 10^7 p/s. Besides, in the data set on lung, the “Organs with luminescence: lung” value is on record as “Lung (weak),”. The “Organs with luminescence: liver” value in the data set on liver is “liver (weak),”. In data set [1] (after 70 days at 5° C.), the Ranking of stability result is on record as “Excellent”.
For the compound `CCCCCCCCCCCOc1cc(COC(=O)CCCN2CCN(CCO)CC2)cc(OCC(CC)CCCC)c1` (centres unmarked) [IAJD 130, 3-((2-Ethylhexyl)oxy)-5-(undecyloxy)benzyl 4-(4-(2-hydroxyethyl)piperazin-1-yl)butanoate], the Luminescence in the data set on HEK293T cells is on record as 76,345. The “In vivo activity (total flux, p/s)” value in the data set on BALB/c mice (Table 19, nonsymmetric IAJDs) was 1.18 × 10^8 p/s; in the data set on BALB/c mice (setting [2]), 1.18 × 10^8 p/s. In the data set on lung, the “Organs with luminescence: lung” value is listed as “Lung (weak),”. Besides, the “Organs with luminescence: liver” value in the data set on liver is “liver (weak),”. For the same compound, in data set [1] (after 62 days at 5° C.), the Ranking of stability entry is given as “Excellent”.
On to `CCCCCCCCCCCCCCCOc1cc(COC(=O)CCCN2CCN(C)CC2)cc(OCC(CC)CCCC)c1` (centres unmarked) [IAJD 135, 3-((2-Ethylhexyl)oxy)-5-(pentadecyloxy)benzyl 4-(4-methylpiperazin-1-yl)butanoate], for which the Luminescence with HEK293T cells amounted to 432. For the same compound, the “In vivo activity (total flux, p/s)” value in the data set on BALB/c mice (Table 19, nonsymmetric IAJDs) is given as 1.22 × 10^7 p/s. In addition, in the data set on lung, the “Organs with luminescence: lung” value is listed as “Lung (weak),”. Besides, the “Organs with luminescence: liver” value in the data set with liver is given as “liver (strong),”. The Ranking of stability entry in data set [1] (after 27 days at 5° C.) is “Excellent”.
As for `CCCCCCCCCCCCCCCOc1cc(COC(=O)CCCN2CCN(CCO)CC2)cc(OCC(CC)CCCC)c1` (centres unmarked) [IAJD 136, 3-((2-Ethylhexyl)oxy)-5-(pentadecyloxy)benzyl 4-(4-(2-hydroxyethyl)piperazin-1-yl)butanoate], in the data set with HEK293T cells, the Luminescence is listed as 283,656. For the same compound, the “In vivo activity (total flux, p/s)” value in the data set on BALB/c mice (Table 19, nonsymmetric IAJDs) is listed as 1.04 × 10^7 p/s. The “Organs with luminescence: lung” value with lung is “Lung (weak),”. The “Organs with luminescence: liver” value with liver is recorded as “liver (weak),”. The Ranking of stability entry in data set [1] (after 27 days at 5° C.) is “Excellent”.
As for `CCCCCCCCCCCCCCCOc1cc(COC(=O)CCCN2CCN(C)CC2)cc(OCCCCCCCCCC)c1` [IAJD 141, 3-(Decyloxy)-5-(pentadecyloxy)benzyl 4-(4-methylpiperazin-1-yl)butanoate], the Luminescence in the data set on HEK293T cells was 140,589. In addition, the “In vivo activity (total flux, p/s)” value in the data set with BALB/c mice (Table 19, nonsymmetric IAJDs) is given as 2.06 × 10^7 p/s. Also, the “Organs with luminescence: lung” value in the data set on lung is reported as “Lung (weak),”. In the data set on liver, the “Organs with luminescence: liver” value is listed as “liver (strong),”. In addition, the Ranking of stability entry in data set [1] (after 27 days at 5° C.) is “Excellent”.
For the compound `CCCCCCCCCCCCCCCOc1cc(COC(=O)CCCN2CCN(CCO)CC2)cc(OCCCCCCCCCC)c1` [IAJD 142, 3-(Decyloxy)-5-(pentadecyloxy)benzyl 4-(4-(2-hydroxyethyl)piperazin-1-yl)butanoate], the Luminescence in the data set on HEK293T cells was 463,750. In addition, the “In vivo activity (total flux, p/s)” value in the data set with BALB/c mice (Table 19, nonsymmetric IAJDs) was 2.51 × 10^7 p/s. Moreover, the “Organs with luminescence: lung” value in the data set on lung is recorded as “Lung (weak),”. In addition, the “Organs with luminescence: liver” value in the data set with liver is “liver (strong),”. The Ranking of stability result in data set [1] (after 27 days at 5° C.) is given as “Excellent”.
Regarding `CCCCCCCCCCCCCCCOc1cc(COC(=O)CCCN2CCN(C)CC2)cc(OCCCCCCCCCCCC)c1` [IAJD 143, 3-(Dodecyloxy)-5-(pentadecyloxy)benzyl 4-(4-methylpiperazin-1-yl)butanoate], the Luminescence with HEK293T cells is 71,851. Also, the “In vivo activity (total flux, p/s)” value in the data set on BALB/c mice (Table 19, nonsymmetric IAJDs) is 1.28 × 10^7 p/s. The “Organs with luminescence: lung” value with lung is given as “Lung (strong),”. Besides, the “Organs with luminescence: liver” value in the data set with liver is given as “liver (strong),”. In addition, the Ranking of stability result in data set [1] (after 27 days at 5° C.) was “Excellent”.
For `CCCCCCCCCCCCCCCOc1cc(COC(=O)CCCN2CCN(CCO)CC2)cc(OCCCCCCCCCCCC)c1` [IAJD 144, 3-(Dodecyloxy)-5-(pentadecyloxy)benzyl 4-(4-(2-hydroxyethyl)piperazin-1-yl)butanoate], in that order: 253,672, 1.39 × 10^7 p/s, “Lung (weak),”, “liver (weak),” and “Excellent”.
Turning to `CCCCCCCCCCCCCCCOc1cc(COC(=O)CCCN2CCN(C)CC2)cc(OCCCCCCCCCCCCC)c1` [IAJD 145, 3-(pentadecyloxy)-5-(tridecyloxy)benzyl 4-(4-methylpiperazin-1-yl)butanoate], the Luminescence in the data set on HEK293T cells is 296. Besides, the “In vivo activity (total flux, p/s)” value with BALB/c mice (Table 19, nonsymmetric IAJDs) was 9.25 × 10^6 p/s. Also, the “Organs with luminescence: lung” value in the data set with lung was “Lung (strong),”. Moreover, the “Organs with luminescence: liver” value in the data set on liver is “liver (weak),”. The Ranking of stability result in data set [1] (after 27 days at 5° C.) is “Excellent”.
The matching figures for `CCCCCCCCCCCCCCCOc1cc(COC(=O)CCCN2CCN(CCO)CC2)cc(OCCCCCCCCCCCCC)c1` [IAJD 146, 3-(Pentadecyloxy)-5-(tridecyloxy)benzyl 4-(4-(2-hydroxyethyl)piperazin-1-yl)butanoate]: 50,625, 4.70 × 10^7 p/s, “Lung (strong),”, “liver (strong),” and “Excellent”.

The values above are taken from patent publication US20240252677A1, “ONE-COMPONENT DELIVERY SYSTEM FOR NUCLEIC ACIDS” (The Trustees of the University of Pennsylvania, priority 2021, published 2024).
